16 molecules from PubChem BioAssay (NCI) can be followed below.

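Cells were grown in 96-well plates and exposed to each compound for 48 hours at five concentrations; endpoints were interpolated linearly between bracketing concentrations, or set to the highest concentration if not reached. The concentration for 50% growth inhibition is given as GI50. TGI is the concentration that stops growth completely.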

The subject of the first assay is IGROV1 ovarian. The experiment in a line: growth of human tumour cells (NCI), 48 h.
The molecule `CC1OC(n2cc(F)c(=O)[nH]c2=O)CCC1O` (configuration not stated) yielded a TGI above 100 µM.
`O=C(NCCOCCOCCNc1cccc2c1C(=O)N(C1CCCNC1=O)C2=O)c1cc2c(o1)C(=O)c1ccccc1C2=O` (configuration not stated): the GI50 was 1.99 µM and the TGI was determined as 5.33 µM.
For `O=C(CN1CCOCC1)Nc1ccc(Cn2nnc3c2C(=O)c2nnn(Cc4ccc(NC(=O)CN5CCOCC5)cc4)c2C3=O)cc1` the same measures were 0.361 µM and 1.64 µM.
As for `O=C(O)Cn1ccc(=O)c2ccc([N+](=O)[O-])cc21`, the TGI is above 100 µM.
For `O=C(c1ccco1)c1nc2ccc(C(F)(F)F)cc2[n+]([O-])c1C(F)(F)F`, the GI50 is 35.6 µM and the TGI is above 100 µM.
As to `CCCCC/C(C=C(C#N)C#N)=C/c1ccccc1`, the GI50 was 8.18 µM and the TGI came to 27.7 µM.
For `CC1CCC2(C(=O)O)CCC3(C)C(=CCC4C5(C)CC(O)C(O)C(C)(CO)C5C(O)CC43C)C2C1C` (configuration not stated), the TGI was 35.9 µM.
Regarding `Cc1ccc(S(=O)(=O)N(CCOc2ccc(/C(N)=N/Cl)cc2)CCOc2ccc(/C(N)=N\Cl)cc2)cc1`, the GI50 was 11.7 µM and the TGI came out at 40.7 µM.
In the case of `COc1ccc(C2=NN(C(=O)c3cc(OC)c(OC)c(OC)c3)C(c3ccc(C#N)cc3)C2)cc1OC` (configuration not stated), the GI50 was 1.18 µM and the TGI came out at 18.9 µM.

The test system of the next assay is M14 melanoma. Briefly: growth of human tumour cells (NCI), 48 h.
For `Cc1ccc(CS/C(=C\c2ccc([N+](=O)[O-])cc2)C(=O)c2ccc(F)cc2)cc1`, the GI50 was 3.07 µM and the TGI turned out to be 15.6 µM.
Regarding `CC[CH2][Pb]([CH2]CC)([CH2]CC)[O]C(=O)C(F)(F)F`, the GI50 is 0.0911 µM and the TGI is 0.33 µM.
Consider `CCOC(=O)CCc1cc(=O)oc2cc(O)cc(O)c12`, for which the TGI is above 100 µM.
On to `CNC(=O)OCc1c(COC(=O)NC)c(-c2ccc(Cl)c(Cl)c2)n2c1SCC2`, for which the TGI is 37.9 µM.
Regarding `COc1cc(OC)cc(-c2ccc(-c3ccc(C(=N)N)o3)o2)c1`, the GI50 was 2.07 µM and the TGI is 4.36 µM.
For `C[C@]12CC[C@H](O)CC1=CC[C@@H]1[C@@H]2CC[C@]2(C)C(c3cccnc3)=CC[C@@H]12` the same measures were above 100 µM and above 100 µM.
`Cc1ccc2c(c1)C(=O)/C(=C/c1ncc([N+](=O)[O-])n1C)O2`: the GI50 is 1.11 µM and the TGI came out at 4.9 µM.
`CC1OC(n2cc(F)c(=O)[nH]c2=O)CCC1O` (configuration not stated): the TGI was above 100 µM.
In the case of `O=C(NCCOCCOCCNc1cccc2c1C(=O)N(C1CCCNC1=O)C2=O)c1cc2c(o1)C(=O)c1ccccc1C2=O` (configuration not stated), the GI50 is 0.772 µM and the TGI is 2.18 µM.
Turning to `O=C(CN1CCOCC1)Nc1ccc(Cn2nnc3c2C(=O)c2nnn(Cc4ccc(NC(=O)CN5CCOCC5)cc4)c2C3=O)cc1`, the GI50 was 0.596 µM and the TGI turned out to be 1.88 µM.
Molecule `O=C(O)Cn1ccc(=O)c2ccc([N+](=O)[O-])cc21` displayed a TGI above 100 µM.
As to `O=C(c1ccco1)c1nc2ccc(C(F)(F)F)cc2[n+]([O-])c1C(F)(F)F`, the GI50 is above 100 µM and the TGI was above 100 µM.
Turning to `CCCCC/C(C=C(C#N)C#N)=C/c1ccccc1`, the GI50 is 2.45 µM and the TGI came out at 7.29 µM.
Consider `CC1CCC2(C(=O)O)CCC3(C)C(=CCC4C5(C)CC(O)C(O)C(C)(CO)C5C(O)CC43C)C2C1C` (configuration not stated), for which the TGI is above 100 µM.
In the case of `Cc1ccc(S(=O)(=O)N(CCOc2ccc(/C(N)=N/Cl)cc2)CCOc2ccc(/C(N)=N\Cl)cc2)cc1`, the GI50 was 35.1 µM and the TGI is above 100 µM.
For `COc1ccc(C2=NN(C(=O)c3cc(OC)c(OC)c(OC)c3)C(c3ccc(C#N)cc3)C2)cc1OC` (configuration not stated) the same measures were 1.8 µM and 10.4 µM.

The test system of another assay is MDA-MB-231 breast. The experiment in a line: growth of human tumour cells (NCI), 48 h.
For `Cc1ccc(CS/C(=C\c2ccc([N+](=O)[O-])cc2)C(=O)c2ccc(F)cc2)cc1`, the GI50 was 2.42 µM and the TGI was 6.08 µM.
For `CC[CH2][Pb]([CH2]CC)([CH2]CC)[O]C(=O)C(F)(F)F`, in that order: 0.142 µM and 0.44 µM.
Molecule `CCOC(=O)CCc1cc(=O)oc2cc(O)cc(O)c12` gave a TGI above 100 µM.
Turning to `CNC(=O)OCc1c(COC(=O)NC)c(-c2ccc(Cl)c(Cl)c2)n2c1SCC2`, the TGI was determined as 34.4 µM.
In the case of `COc1cc(OC)cc(-c2ccc(-c3ccc(C(=N)N)o3)o2)c1`, the GI50 was 2.35 µM and the TGI came to 4.78 µM.
In the case of `C[C@]12CC[C@H](O)CC1=CC[C@@H]1[C@@H]2CC[C@]2(C)C(c3cccnc3)=CC[C@@H]12`, the GI50 is above 27.1 µM and the TGI is above 100 µM.
For `Cc1ccc2c(c1)C(=O)/C(=C/c1ncc([N+](=O)[O-])n1C)O2`, in that order: 1.56 µM and 6.92 µM.
Molecule `CC1OC(n2cc(F)c(=O)[nH]c2=O)CCC1O` (configuration not stated) displayed a TGI above 100 µM.
On to `O=C(NCCOCCOCCNc1cccc2c1C(=O)N(C1CCCNC1=O)C2=O)c1cc2c(o1)C(=O)c1ccccc1C2=O` (configuration not stated), for which the GI50 is 2.72 µM and the TGI was 9.96 µM.
As for `O=C(CN1CCOCC1)Nc1ccc(Cn2nnc3c2C(=O)c2nnn(Cc4ccc(NC(=O)CN5CCOCC5)cc4)c2C3=O)cc1`, the GI50 is 0.26 µM and the TGI was above 100 µM.
With `O=C(O)Cn1ccc(=O)c2ccc([N+](=O)[O-])cc21`, the TGI came to 78.5 µM.
Take `O=C(c1ccco1)c1nc2ccc(C(F)(F)F)cc2[n+]([O-])c1C(F)(F)F`: the GI50 was 25.4 µM and the TGI is above 100 µM.
Turning to `CCCCC/C(C=C(C#N)C#N)=C/c1ccccc1`, the GI50 is 3.85 µM and the TGI stood at 16.2 µM.
As to `CC1CCC2(C(=O)O)CCC3(C)C(=CCC4C5(C)CC(O)C(O)C(C)(CO)C5C(O)CC43C)C2C1C` (configuration not stated), the TGI worked out at 72 µM.
On to `Cc1ccc(S(=O)(=O)N(CCOc2ccc(/C(N)=N/Cl)cc2)CCOc2ccc(/C(N)=N\Cl)cc2)cc1`, for which the GI50 is 44.4 µM and the TGI was above 100 µM.
